Reference: PubChem BioAssay (NCI)
“And” between values parts separate entries of the source, which are not always exact repeats. Equal entries are not always repeated.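 Growth conditions: 96-well plates. Treatment: test compound, 48 hours, 5 concentrations. Analysis: linear interpolation between bracketing concentrations; unreached endpoints set to highest concentration. The concentration for 50% growth inhibition is given as GI50. The concentration for full growth arrest is given as TGI.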

Experiments:
Assay in all cases: inhibition of tumour cell growth, NCI panel, 48 h
BT-549 breast = system: BT-549 breast
CCRF-CEM leukemia = system: CCRF-CEM leukemia
DU-145 prostate = system: DU-145 prostate
EKVX NSCLC = system: EKVX NSCLC
KM12 colon = system: KM12 colon
MOLT-4 leukemia = system: MOLT-4 leukemia
OVCAR-8 ovarian = system: OVCAR-8 ovarian
PC-3 prostate = system: PC-3 prostate
SK-MEL-28 melanoma = system: SK-MEL-28 melanoma
TK-10 renal = system: TK-10 renal

SMILES | TGI (BT-549 breast) [µM] | TGI (CCRF-CEM leukemia) | TGI (DU-145 prostate) [µM] | TGI (EKVX NSCLC) | TGI (KM12 colon) | TGI (MOLT-4 leukemia) | TGI (OVCAR-8 ovarian) | TGI (PC-3 prostate) [µM] | TGI (SK-MEL-28 melanoma) | TGI (TK-10 renal) | GI50 (DU-145 prostate) [µM] | GI50 (KM12 colon) | GI50 (CCRF-CEM leukemia) | GI50 (MOLT-4 leukemia) | GI50 (BT-549 breast) [µM] | GI50 (EKVX NSCLC) [µM] | GI50 (OVCAR-8 ovarian) [µM] | GI50 (PC-3 prostate) [µM] | GI50 (SK-MEL-28 melanoma) [µM] | GI50 (TK-10 renal) [µM]
O=C1c2ccccc2CN1c1ccc(O)cc1 | > 100 | > 100 µM | > 100 | > 100 µM | > 100 µM | > 100 µM | > 100 µM | > 100 | > 100 µM | > 100 µM | – | – | – | – | – | – | – | – | – | –
CN(C)c1nc(=NCc2ccncc2)ss1 | 44 | 49.6 µM | > 100 | > 100 µM | > 100 µM | 51.1 µM | 34.6 µM | > 63.4 | > 93.9 µM | > 100 µM | > 100 | > 100 µM | – | – | – | – | – | – | – | –
O=C(O)[C@@H]1C[C@@H](O)CN1C(=O)OCc1ccccc1 | > 100 | > 100 µM | > 100 | > 100 µM | > 100 µM | > 100 µM | > 100 µM | > 100 | > 100 µM | > 100 µM | – | – | – | – | – | – | – | – | – | –
C=C1C(=O)OC2/C=C(\CO)C(OC(C)=O)CC(O)/C(C)=C/C(OC(=O)C(C)CC)C12 (stereo not given) | 36.9 | 22.7 µM and 69 µM | 43.8 | 54.5 µM and 61.5 µM | 32.5 µM and > 100 µM | 28.2 µM and 64.3 µM | 36.4 µM and 52.1 µM | > 100 | 32.3 µM and 70.1 µM | 36 µM and 38.7 µM | – | 17.5 µM and 35.2 µM | 3.76 µM and 11.4 µM | 11 µM and 22.6 µM | – | – | – | – | – | –
Nc1c2ccccc2nc2c1ccc1ncccc12 | > 100 | 39 µM | > 100 | > 100 µM | 52.6 µM | > 100 µM | > 100 µM | > 100 | > 100 µM | > 100 µM | – | – | – | – | – | – | – | – | – | –
O=C1CCSSCCC(=O)NCCN1 | > 100 | > 100 µM | > 100 | > 100 µM | > 100 µM | > 100 µM | > 100 µM | > 100 | > 100 µM | > 100 µM | – | – | – | – | – | – | – | – | – | –
Cc1ccccc1OC(C)C(=O)NN1C(=O)CC(=O)N(c2ccc(Cl)cc2)C1=S (stereo not given) | > 100 | 57 µM | > 100 | > 100 µM | > 100 µM | > 100 µM | > 100 µM | > 100 | > 100 µM | > 100 µM | – | – | – | – | – | – | – | – | – | –
COc1ccc2c(c1)O/C(=C\c1cccc(OCC(=O)Nc3nc4c(s3)CCCC4)c1)C2=O | > 100 | 7.79 µM | 19.7 | > 100 µM | > 100 µM | 98.7 µM | > 70.4 µM | > 60.1 | > 100 µM | > 100 µM | 5.01 | 10.4 µM | 2.07 µM | 4.5 µM | > 51.1 | > 66.3 | > 21.7 | 12.7 | > 100 | > 100
CC(=O)OC(C)c1cc2c(s1)C(=O)c1sccc1C2=O (stereo not given) | 1.68 | > 100 µM | 0.56 | 3.7 µM | 3.36 µM | > 23.6 µM | 4.66 µM | 14.2 | 3.64 µM | 3.86 µM | – | – | – | – | – | – | – | – | – | –
COc1ccc(/C(=N/O)c2ccccc2-c2nc3ccccc3c(=O)n2-c2ccc(S(=O)(=O)Nc3ncccn3)cc2)cc1C | 31.3 | 25.5 µM | > 31.6 | > 31.6 µM | > 31.6 µM | 23.8 µM | > 31.6 µM | > 31.6 | 23 µM | > 31.6 µM | – | – | – | – | – | – | – | – | – | –
Cc1cc(-c2nc3c(O)cccc3s2)ccc1N | 58.3 | 82.9 µM | > 100 | 52.9 µM | 65 µM | > 100 µM | 54.4 µM | 52.6 | > 100 µM | 74.8 µM | – | – | – | – | – | – | – | – | – | –
CCOC(=O)c1[nH]cc(C)c1-c1ccn(-c2ccccc2)c1 | > 100 | 79.3 µM | > 100 | > 100 µM | > 100 µM | 65.2 µM | > 100 µM | > 100 | > 100 µM | > 100 µM | – | – | – | – | – | – | – | – | – | –
CCNC(=O)Nc1ccccn1 | > 100 | > 100 µM | > 100 | > 100 µM | > 100 µM | > 100 µM | > 100 µM | > 100 | > 100 µM | > 100 µM | – | – | – | – | – | – | – | – | – | –
C/C(N=Nc1nc2ccccc2s1)=C1/C=CC=CN1O | > 100 | > 100 µM | > 100 | 6.03 µM | > 100 µM | > 100 µM | > 100 µM | > 100 | > 100 µM | 61.3 µM | – | – | – | – | – | – | – | – | – | –
CC(C)(C)NC(=O)[C@H]1CC[C@H]2[C@@H]3CC=C4NC(=O)CC[C@]4(C)[C@H]3CC[C@]12C | > 100 | > 100 µM | > 100 | > 100 µM | > 100 µM | > 100 µM | > 100 µM | > 100 | > 100 µM | > 100 µM | – | – | – | – | – | – | – | – | – | –
C=C1[C@@H](O)C[C@@]23CC[C@@H]4[C@@]5(C)CC[C@@H](OC(C)=O)C(C)(C)[C@@H]5C[C@@H](OC5OC(COC(C)=O)C(O)C(O)C5O)[C@@]4(C)C2=CC[C@H]3[C@H]1C (stereo not given in full) | 21.4 | 9.82 µM | 22.6 | 25.9 µM | 8.16 µM | 8.32 µM | 21.8 µM | 13.9 | 19.8 µM | 21 µM | – | – | – | – | – | – | – | – | – | –
O=C(O)C1CC(c2ccc(F)cc2)=Nc2ccc(F)cc2S1 (stereo not given) | > 100 | > 100 µM | > 100 | > 100 µM | > 100 µM | > 100 µM | > 100 µM | > 100 | > 100 µM | > 100 µM | – | – | – | – | – | – | – | – | – | –
CCSC1=CC(=O)c2nc3ccccc3c3ccnc1c23 | 26.3 | > 25.9 µM | 15.5 | 7.59 µM | 25.2 µM | 15.3 µM | > 100 µM | > 23.3 | 25.3 µM | 26.5 µM | – | – | – | – | – | – | – | – | – | –
CC1(C)O[C@@H]2COC(=O)[C@@H]2O1 | > 100 | > 100 µM | > 100 | > 100 µM | > 100 µM | > 100 µM | > 100 µM | > 100 | > 100 µM | > 100 µM | – | – | – | – | – | – | – | – | – | –
CC1(C)C(c2ccccc2)=[N+]([O-])C(C)(C)N1O | > 10 | > 10 µM | > 10 | > 10 µM | > 10 µM | > 10 µM | > 10 µM | > 10 | > 10 µM | > 10 µM | – | – | – | – | – | – | – | – | – | –
O=c1c2ncn(C3CC(O)C(CO)O3)c2nnn1Cc1ccccc1[N+](=O)[O-] (stereo not given) | > 100 | > 100 µM | > 100 | > 100 µM | > 100 µM | > 100 µM | > 100 µM | > 100 | > 100 µM | > 100 µM | – | – | – | – | – | – | – | – | – | –
